In patent US20190008804A1 (Repros Therapeutics Inc., priority 2016, published 2019):
pIC50, pKi: −log10 of the molar value. Like-named read-outs stand apart in the source and are kept apart here.

Assays:
ERβ [1] = molecular target: T1, ERβ (Homo sapiens, UniProt Q92731); test: ERβ coactivator response; type: biochemical; parameters: concentration or dose not given beside the values
Target sequence in this assay (Q92731 whole entry): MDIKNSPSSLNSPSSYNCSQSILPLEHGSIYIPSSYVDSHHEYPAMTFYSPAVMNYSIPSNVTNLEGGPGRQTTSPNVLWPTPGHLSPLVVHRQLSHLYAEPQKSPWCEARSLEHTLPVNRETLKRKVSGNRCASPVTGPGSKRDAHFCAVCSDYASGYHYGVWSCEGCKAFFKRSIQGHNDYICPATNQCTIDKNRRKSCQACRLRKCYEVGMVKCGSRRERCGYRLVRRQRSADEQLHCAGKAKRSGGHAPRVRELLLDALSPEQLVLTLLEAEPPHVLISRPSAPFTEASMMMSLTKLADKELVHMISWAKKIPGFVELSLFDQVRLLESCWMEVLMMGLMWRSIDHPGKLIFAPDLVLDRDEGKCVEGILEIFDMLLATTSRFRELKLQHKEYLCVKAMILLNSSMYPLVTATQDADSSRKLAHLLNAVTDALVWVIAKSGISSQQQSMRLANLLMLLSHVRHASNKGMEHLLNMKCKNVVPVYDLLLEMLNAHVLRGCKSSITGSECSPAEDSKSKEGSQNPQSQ

ERβ [2] = molecular target: T1, ERβ; test: Estrogen ERβ competitive radioligand binding with [3H]estradiol; parameters: made in house; host or cells: insect Sf9 cells
Description: IC50 values were determined by non-linear least squares regression analysis. […] The Hill coefficient (nH) defines the slope of the competitive binding curve and was determined using MathIQ™ (ID Business Solutions Ltd., UK).
Estrogen ERβ • Source: Human recombinant insect Sf9 cells
Target sequence in this assay (Q92731 264-498 limits assumed): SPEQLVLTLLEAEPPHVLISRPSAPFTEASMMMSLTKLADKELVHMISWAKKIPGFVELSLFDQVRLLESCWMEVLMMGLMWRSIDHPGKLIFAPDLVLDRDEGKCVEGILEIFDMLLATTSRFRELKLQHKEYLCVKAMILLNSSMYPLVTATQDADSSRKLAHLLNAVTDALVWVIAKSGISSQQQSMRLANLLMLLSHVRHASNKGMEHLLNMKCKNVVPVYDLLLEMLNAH

[3] = Bone calcium in female pigs after 180 days daily oral dosing; type: in vivo
Description: Active agents or placebo were administered after heat (estrus) in the luteal phase. […] All treatment groups received daily oral administration of the appropriate capsule(s) for 180 days. Daily general health observations and weekly body weight measurements were conducted for all groups. Following the 6 month administration period, calcium (parts per million (ppm) dry weight (dw)) was determined in rib and femur bone samples from pigs in each treatment group: […]

[4] = Co-administration of Proellex and Androxal in cycling female baboons, 180 days daily oral; type: in vivo; conditions: daily oral 180 days, Androxal 25 mg
Description: All treatment groups received daily oral administration of the appropriate capsule(s) for 180 days. Daily oral dosing was started in the luteal phase. […] Daily observations of estrus (heat) were conducted for all groups.

ERβ [5] = molecular target: T1, ERβ; conditions: reference compound, Estrogen ERβ; cited from earlier work
Target sequence in this assay (Q92731 264-498 limits assumed): as above

[6] = third of three separate radioligand binding studies, read-out: Receptor Binding ERβ IC50

CCNCCOc1ccc(/C(=C(/Cl)c2ccccc2)c2ccc(O)cc2)cc1 [4-OH-N-Desethyl enclomiphene, (E)-4-OH-desethyl Clomiphene]
ERβ Coactivator Response Ant (antagonist) (ERβ [1]; second of two separate studies): 104%
pIC50 (ERβ [2]; [6]): 9.35

CCN(CC)CCOc1ccc(/C(=C(/Cl)c2ccccc2)c2ccccc2)cc1 [Enclomiphene, trans-clomiphene]
effect on calcium content of bone ([3]; female pigs, daily oral 180 days): did not affect the calcium content of bone
Ca (ppm dw), Mean ([3]; rib and femur bone samples, female pigs n = 3, daily oral 180 days, Proellex 12 mg, Androxal 25 mg): 139300.00 ppm dw
ERβ Coactivator Response Ant (antagonist) (ERβ [1]; first of two separate studies): 65%
cycling [4]: prevented cycling
cycling of vaginal bleeding ([4]; Proellex 12 mg): stopped
swelling (turgesence) of the tissue around the tail under the control of estrogen ([4]; Proellex 12 mg): inhibited the swelling

CC/C(=C(/CC)c1ccc(O)cc1)c1ccc(O)cc1 [Diethylstilbestrol]
Historical nH (ERβ [5]): 1.20

CCNCCOc1ccc(/C(=C(/Cl)c2ccccc2)c2ccccc2)cc1 [N-Desethyl enclomiphene, (E)-desethyl Clomiphene]
ERβ Coactivator Response Ant (antagonist) (ERβ [1]; second of two separate studies): 74%
pIC50 (ERβ [2]; [6]): 8.95

CC[N+]([O-])(CC)CCOc1ccc(/C(=C(/Cl)c2ccccc2)c2ccccc2)cc1 [Enclomiphene-NO, (E)-Clomiphene-NO]
ERβ Coactivator Response Ant (antagonist) (ERβ [1]; first of two separate studies): 95%

NCCOc1ccc(/C(=C(/Cl)c2ccccc2)c2ccccc2)cc1 [Di-de-ethyl-enclomiphene, (E)-di-desethyl Clomiphene]
ERβ Coactivator Response Ant (antagonist) (ERβ [1]; first of two separate studies): 87%

COCC(=O)[C@@]1(OC(C)=O)CC[C@H]2[C@@H]3CCC4=CC(=O)CCC4=C3[C@@H](c3ccc(N(C)C)cc3)C[C@@]21C [Proellex, 21-methoxy-17α-acetoxy-11β-(4 N, N-dimethylaminophenyl)-19-norpregna-4,9-diene-3,20-dione]
effect on calcium content of bone ([3]; pig, in vivo, po): did not affect the calcium content of bone
cycling of vaginal bleeding ([4]; Proellex 12 mg): stopped
endometrial thickness ([4]; Proellex 12 mg): increase in endometrial thickness
swelling (turgesence) of the tissue around the tail under the control of estrogen ([4]; Proellex 12 mg): not proellex alone inhibited the swelling

CCN(CC)CCOc1ccc(/C(=C(/Cl)c2ccccc2)c2ccc(O)cc2)cc1 [4-OH-enclomiphene, (E)-4-OH-Clomiphene]
ERβ Coactivator Response Ant (antagonist) (ERβ [1]; first of two separate studies): 60%
nH (Hill coefficient) (ERβ [2]; ERβ, hum): 1.56
% Inh. (ERβ [2]; ERβ, hum, Conc. 0.9 nM): 67%
pKi (ERβ [2]; ERβ, hum, Cheng-Prusoff): 9.92
pIC50 (ERβ [2]; ERβ, hum, additional data, read-out: IC50): 9.24
ligand preference ERα versus ERβ (ERβ [2]; based on binding and co-activator studies): better ligand for ERβ
pIC50 (ERβ [2]; first of three separate radioligand binding studies, read-out: Receptor Binding ERβ IC50): 9.24
pIC50 (ERβ [2]; second of three separate radioligand binding studies, read-out: Receptor Binding ERβ IC50): 9.39
